# Results from article PMC12621184, “Synthesis and Pharmacological Characterization of Nociceptin/Orphanin FQ Dimeric Ligands” (Journal of Medicinal Chemistry, 2025).
# “And” between values parts separate entries of the source, which are not always exact repeats. Equal entries are not always repeated. Bridge positions count the residues as written; N and C are the ends. Peptide text beside a SMILES is read from it. I, II: the chains in the order shown.
# Experiments:
# [1] = target: human NOP (Homo sapiens, UniProt P41146); assay: NOP receptor–G protein interaction BRET assay; format: biochemical; design: expressed in transfected cells; host or cells: membranes of HEK293 cells stably coexpressing NOP-RLuc and Gβ1-RGFP; conditions: N = 5 experiments in duplicate
# Experimental: A BRET interaction assay was used, as previously detailed in ref , to study the propensity of ligands to evoke interaction between the NOP receptor and to G protein. Membranes taken from HEK293 cells stably coexpressing the fusoproteins NOP-RLuc and Gβ1-RGFP were used. Such cells were grown in DMEM medium supplemented with 10% FBS, 2 mM L-glutamine, […] G418, […] hygromycin B, 100 IU/mL penicillin, and 100 IU/mL streptomycin in a humidified atmosphere with 5% CO2 at 37 °C. Cell membranes were thawed and resuspended in PBS supplemented with 0.01% BSA before the assay, and an amount of 3 μg of total protein was dispensed in each of the 96 wells together with 2 μM Prolume Purple Coelenterazine. All experiments were carried out at room temperature. Ligands were added, and averaged BRET ratios from 10 min measurements were computed. BRET ratios were computed as counts per second (CPS) obtained on a Victor Nivo (PerkinElmer) with 405 (10) nm and 510 (30) nm bandpass filters. Vehicles’ BRET ratios were derived from light passed through 510 divided by that passed through 405 filters. Vehicles BRET values were subtracted from all computations, and data sets were normalized as a fraction of N/OFQ maximal effects.
# Concentration-response curves to agonists were analyzed by a four-parameter logistic nonlinear regression model: Effect = baseline + (E max – baseline)/(1 + 10^((logEC50–log[ligand])slope)). […] Experimental data were expressed as mean ± sem of at least 5 experiments. Potency values were expressed as the mean and CL95%. In vitro E max values were analyzed by one-way ANOVA, while in vivo latency data were evaluated by one-way ANOVA followed by Dunnett’s post hoc test. The proportion of mice losing the righting reflex was compared by Fisher’s exact test performed on raw data. GraphPad Prism 10.0 software was used for all of the analyses. The terminology employed is consistent with the International Union of Basic and Clinical Pharmacology (IUPHAR) recommendations. ,
# [2] = target: T1, human μ opioid receptor (Homo sapiens, UniProt P35372); assay: Calcium mobilization assay, CHO cells with μ receptor and chimeric G protein; format: cell-based; conditions: CHO cells coexpressing human μ receptor and Gαqi5; 5 experiments in duplicate; read-out: calcium mobilization at μ receptor, concentration up to which inactive
# T1 construct: expressed in transfected cells
# Experimental: Chinese hamster ovary (CHO) cells stably coexpressing the human NOP, μ, or κ opioid receptors and the Gαqi5 protein or the human δ and the GαqG66Di5 protein were used in this assay. , Cells were cultured in DMEM/F-12 (1:1) medium supplemented with 10% FBS, 2 mM L-glutamine, […], 100 IU/mL penicillin, and 100 IU/mL streptomycin. Cells were maintained at 37 °C in a humidified atmosphere with 5% CO2 and were seeded at 50 000 cells/well into 96-well black, clear-bottom plates 24 h before test. Loading for 45 min with a solution consisting of HBSS supplemented with 2.5 mM probenecid, 3 μM Fluo-4 AM, and 0.01% pluronic acid ensures the calcium-sensitive dye (Fluo-4) reaches the needed concentration inside the cell, while the exchange of the solution with 100 μL/well of buffer consisting of HBSS with 20 mM HEPES, 2.5 mM probenecid, and 500 μM Brilliant Black allows for fluorescence background to decrease. Serial dilutions of ligands were prepared in HBSS buffer with 20 mM HEPES and 0.02% bovine serum albumin (BSA) to minimize the ligands’ stickiness to plasticware. The automated microplate reader FlexStation II (Molecular Devices, CA, US) was employed at 37 °C to detect changes in fluorescence intensity. The effects of all compounds were expressed as the maximum change in percentage over the baseline fluorescence measured in samples treated with vehicles. […]
# [3] = tested on: mouse vas deferens from NOP(−/−) mice; assay: Electrically stimulated mouse vas deferens bioassay, NOP(−/−) tissues; conditions: mVD from CD-1 NOP(−/−) mice; 5 experiments
# Experimental: This study was approved by the Animal Welfare Body of the University of Ferrara and by the Italian Ministry of Health (authorization number CBCC2.N.BXI). Experiments were performed on an isolated mouse vas deferens. All experiments were conducted with mice bred and housed in the University of Ferrara’s animal facility under specific pathogen-free conditions (SPF). All mice were housed in cages with individual ventilation, with a constant temperature of 21 °C, 60% humidity, and a 12 h light/dark cycle. Food and water were provided ad libitum. CD-1 NOP(+/+) and CD-1 NOP(−/−) male mice, aged 9 to 12 months, were used. Animals were sacrificed on the day of the experiment with CO2 overdose. Bioassay experiments were performed as previously described. The tissues were suspended in 5 mL organ bath containing Krebs solution (NaCl 118.5 […]). The Krebs solution was oxygenated with 95% O2 and 5% CO2 and the temperature set at 33 °C with a resting tension of 0.3 g applied to the tissues. Tissues were stimulated through two platinum electrodes with a supramaximal rectangular pulse of 1 ms duration, 0.05 Hz frequency, and 80 V of amplitude. The electrically evoked contractions were measured isotonically by means of Basile strain gauge transducers (Basile, IT) and a recorder with a Power Lab 8 instrument (ADInstruments, CO, U.S.). Following an equilibration period of approximately 60 min, the contractions induced by electrical field stimulation were stable. At this time, cumulative concentration response curves were carried out.
# Concentration-response curves to agonists were analyzed by a four-parameter logistic nonlinear regression model: Effect = baseline + (E max – baseline)/(1 + 10^((logEC50–log[ligand])slope)). […] Experimental data were expressed as mean ± sem of at least 5 experiments. Potency values were expressed as the mean and CL95%. In vitro E max values were analyzed by one-way ANOVA, while in vivo latency data were evaluated by one-way ANOVA followed by Dunnett’s post hoc test. […]
# T1 sequence (P35372 whole entry): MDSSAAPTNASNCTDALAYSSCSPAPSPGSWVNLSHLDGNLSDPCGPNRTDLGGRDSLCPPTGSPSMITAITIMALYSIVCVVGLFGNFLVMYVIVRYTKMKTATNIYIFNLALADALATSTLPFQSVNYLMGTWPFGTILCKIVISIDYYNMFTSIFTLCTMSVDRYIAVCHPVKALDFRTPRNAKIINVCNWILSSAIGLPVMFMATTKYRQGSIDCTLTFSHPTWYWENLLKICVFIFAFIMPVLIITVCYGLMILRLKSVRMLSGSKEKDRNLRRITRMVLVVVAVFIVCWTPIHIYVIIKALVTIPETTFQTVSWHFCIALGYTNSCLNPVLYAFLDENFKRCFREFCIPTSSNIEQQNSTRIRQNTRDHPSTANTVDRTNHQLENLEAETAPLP
compound,measurement,setting,value
"C[C@H](NC(=O)CNC(=O)[C@@H](NC(=O)[C@H](Cc1ccccc1)NC(=O)CNC(=O)CNC(=O)[C@@H](N)Cc1ccccc1)[C@@H](C)O)C(=O)N[C@@H](CCCNC(=N)N)C(=O)N[C@@H](CCCCN)C(=O)N[C@@H](CO)C(=O)N[C@@H](C)C(=O)N[C@@H](CCCNC(=N)N)C(=O)N[C@@H](CCCCN)C(=O)N[C@@H](CSSC[C@H](NC(=O)[C@H](CCCCN)NC(=O)[C@H](CCCNC(=N)N)NC(=O)[C@H](C)NC(=O)[C@H](CO)NC(=O)[C@H](CCCCN)NC(=O)[C@H](CCCNC(=N)N)NC(=O)[C@H](C)NC(=O)CNC(=O)[C@@H](NC(=O)[C@H](Cc1ccccc1)NC(=O)CNC(=O)CNC(=O)[C@@H](N)Cc1ccccc1)[C@@H](C)O)C(=O)N[C@@H](C)C(=O)N[C@@H](CC(N)=O)C(=O)N[C@@H](CCC(N)=O)C(N)=O)C(=O)N[C@@H](C)C(=O)N[C@@H](CC(N)=O)C(=O)N[C@@H](CCC(N)=O)C(N)=O [1h, [[Cys^14]N/OFQ-NH2]2] (I: H-FGGFTGARKSARKCANQ-NH2 / II: H-FGGFTGARKSARKCANQ-NH2; disulfide I:14-II:14; N-terminus assumed)",NOP–G protein interaction E max ± sem,"[1]; effects normalized to N/OFQ-NH2 (E max = 1), mean ± sem",0.80 ± 0.08
same,EC50,"[1]; membranes from HEK293 cells coexpressing NOP-RLuc and Gβ1-RGFP, room temperature, mean (CL95%), read-out: NOP–G protein interaction pEC50 (CL95%) (converted)",< 1 nM and 0.123 nM
same,EC50,[2],> 1000 nM
same,effect in mVD tissues from NOP(−/−) mice (in words),[3],no effect
